The values that follow come from patent US20120302566A1, “INDANYLOXYDIHYDROBENZOFURANYLACETIC ACIDS” (BOEHRINGER INGELHEIM INTERNATIONAL GMBH, priority 2010, published 2012).

Bounds are passed on as bounds.

The target in assay [1] is T1, human GPR40 receptor (Homo sapiens, UniProt O14842). Description: IP1 accumulation measurements using the IPOne assay system. In kind it is cell-based. As to conditions: IP1 accumulation (IPOne HTRF), 1 hour stimulation; 1321N1 cells stably expressing human GPR40; read-out: EC50 values on GPR40 determined as described in (B). As to the method:
(B) IP1 accumulation measurements using the IPOne assay system—1321N1 cells stably expressing human GPR40 receptor (Euroscreen, Belgium) were seeded 24 h before the assay in black clear-bottom collagen-coated 384-well plates in culture medium containing 10% FCS, 1% Na-Pyruvate and 400 μg/mL G418. IP1 is assayed according to the Manufacturer's description (Cisbio Bioassays, France). In brief, the assay is started by substitution of the culture medium by stimulation buffer (Hepes 10 mM, CaCl2 1 mM, MgCl2 0.5 mM, KCl 4.2 mM, NaCl 146 mM and glucose 5.5 mM, pH 7.4) without LiCl. Cells are stimulated for 1 hour at 37°, 10% CO2 by addition of the compounds that were diluted in stimulation buffer containing LiCl yielding a final LiCl concentration of 50 mM. Assays are stopped by adding HTRF-conjugates (IP1-d2 and Anti-IP1 cryptate Tb) and lysis buffer, provided by the manufacturer. After an incubation time of 1 hour at room temperature plates are measured using an EnVision™, Perkin Elmer.
Background: In TR-FRET formats the signal depends on donor and acceptor labels being close together.

For assay [2], the target named is T1, human GPR40 receptor. The assay can be described thus: Cytosolic calcium measurement using the FLIPR system. It is filed as cell-based. As to conditions: FLIPR cytosolic Ca2+ peak height; 1321N1 cells stably expressing human GPR40; read-out: EC50 values on GPR40 determined as described in (A). As to the method: (A) Cytosolic calcium measurement using the FLIPR system—1321N1 cells stably expressing human GPR40 receptor (Euroscreen, Belgium) were seeded 24 h before the assay in black clear-bottom collagen-coated 384-well plates in culture medium containing 10% FCS, 1% Na-Pyruvate and 400 μg/ml G418. On the assay day, wells were washed twice with 100 μL Krebs Ringer Buffer (KRB) containing 15 mM sodium hydrogencarbonate and 30 mM Hepes leaving 20 μl rest volume per well. Prior to stimulation the cells were loaded with the Ca^2+-sensitive fluorescent dye from the Calcium4 Assay Kit™ according to the Manufacturer's description (MDS Analytical technologies, Ismaning, Germany) for 80 min at room temperature in the dark, in the presence of 4 mM probenicid. Changes in cytosolic Ca^2+ concentration upon compound addition were monitored using a FLIPR Tetra device (Fluorescence Imaging Plate Reader; MDS Analytical technologies). The peak height of the obtained fluorescence signal was then used to calculate the EC50 values using GraphPad Prism 5 (Graphpad Software Inc, USA) using a sigmoidal curve fitting procedure allowing for a variable hill slope.

T1 sequence (O14842 whole entry): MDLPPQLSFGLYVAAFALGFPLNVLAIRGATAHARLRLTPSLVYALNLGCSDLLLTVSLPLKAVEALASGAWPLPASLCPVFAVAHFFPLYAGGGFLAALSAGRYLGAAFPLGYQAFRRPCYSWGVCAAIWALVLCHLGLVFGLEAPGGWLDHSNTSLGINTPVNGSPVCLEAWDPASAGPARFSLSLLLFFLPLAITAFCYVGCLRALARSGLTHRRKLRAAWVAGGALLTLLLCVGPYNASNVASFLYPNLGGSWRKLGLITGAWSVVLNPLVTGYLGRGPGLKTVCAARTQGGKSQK

Usually EC50 stands for the concentration needed to bring the measured effect to its halfway point. As to `O=C(O)CC1COc2cc(OC3CCc4c3cccc4C(F)(F)F)ccc21` (mixture of isomers) [Example 1, [6-(4-Trifluoromethyl-indan-1-yloxy)-2,3-dihydro-benzofuran-3-yl]-acetic acid], the concentration for a half-maximal effect (EC50) in assay [1] came to 69 nM; in assay [2], 50 nM. As to `O=C(O)CC1COc2cc(O[C@@H]3CCc4c(Br)cccc43)ccc21` (mixture of isomers) [Example 6, {6-[(R)-4-Bromo-indan-1-yloxy]-2,3-dihydro-benzofuran-3-yl}-acetic acid], the values for the EC50 in assay [1] and in assay [2] were 62 nM and 49 nM, respectively.

With `CC1(C)CCC=C1c1cccc2c1CC[C@H]2Oc1ccc2c(c1)OCC2CC(=O)O` (mixture of isomers) [Example 15, {6-[(R)-4-(5,5-Dimethyl-cyclopent-1-enyl)-indan-1-yloxy]-2,3-dihydro-benzofuran-3-yl}-acetic acid], the EC50 in assay [1] worked out at 30 nM; in assay [2] it was 3840 nM. In the same order, the values of `O=C(O)C[C@H]1COc2cc(O[C@H]3CCc4c3cccc4C(F)(F)F)ccc21` (single isomer, unassigned) [Example 2, [6-(4-Trifluoromethyl-indan-1-yloxy)-2,3-dihydro-benzofuran-3-yl]-acetic acid] are 20 nM and 27 nM. In the same order, the values of `O=C(O)C[C@H]1COc2cc(O[C@H]3CCc4c3cccc4C(F)(F)F)ccc21` (single isomer, unassigned) [Example 5, [6-(4-Trifluoromethyl-indan-1-yloxy)-2,3-dihydro-benzofuran-3-yl]-acetic acid] are 8990 nM and 2280 nM. In the same order, the values of `O=C(O)C[C@H]1COc2cc(O[C@H]3CCc4c3cccc4C(F)(F)F)ccc21` (stereo in doubt) [3/4, [6-(4-Trifluoromethyl-indan-1-yloxy)-2,3-dihydro-benzofuran-3-yl]-acetic acid] are 501 nM and 186 nM. For `Cn1cc(-c2cccc3c2CC[C@H]3Oc2ccc3c(c2)OCC3CC(=O)O)cn1` (stereo partly drawn) [Example 7, {6-[(R)-4-(1-Methyl-1H-pyrazol-4-yl)-indan-1-yloxy]-2,3-dihydro-benzofuran-3-yl}-acetic acid], the EC50 in assay [1] stood at 2000 nM; in assay [2], 710 nM. On to `O=C(O)CC1COc2cc(O[C@@H]3CCc4c(C5=CCOCC5)cccc43)ccc21` (stereo partly drawn) [Example 8, {6-[(R)-4-(3,6-Dihydro-2H-pyran-4-yl)-indan-1-yloxy]-2,3-dihydro-benzofuran-3-yl}-acetic acid], for which the results for the concentration for a half-maximal effect (EC50) in assay [1] and in assay [2] were 1570 nM and 312 nM, respectively. In the same order, the values of `Cn1ccc(-c2cccc3c2CC[C@H]3Oc2ccc3c(c2)OCC3CC(=O)O)cc1=O` (stereo partly drawn) [Example 9, {6-[(R)-4-(1-Methyl-2-oxo-1,2-dihydro-pyridin-4-yl)-indan-1-yloxy]-2,3-dihydro-benzofuran-3-yl}-acetic acid] are more than 10000 nM and 3250 nM. In the same order, the values of `COc1ccc(-c2cccc3c2CC[C@H]3Oc2ccc3c(c2)OCC3CC(=O)O)cc1` (stereo partly drawn) [Example 10, {6-[(R)-4-(4-Methoxy-phenyl)-indan-1-yloxy]-2,3-dihydro-benzofuran-3-yl}-acetic acid] are 178 nM and 333 nM. In the same order, the values of `COC(c1cccc2c1CCC2Oc1ccc2c(c1)OCC2CC(=O)O)C(F)F` (stereo not drawn) [Example 11, {6-[4-(2,2-Difluoro-1-methoxy-ethyl)-indan-1-yloxy]-2,3-dihydro-benzofuran-3-yl}-acetic acid] are 2230 nM and 628 nM.

Regarding `CC(C)(O)C(F)(F)c1cccc2c1CC[C@H]2Oc1ccc2c(c1)OC[C@H]2CC(=O)O` [Example 85, {(S)-6-[(R)-4-(1,1-Difluoro-2-hydroxy-2-methyl-propyl)-indan-1-yloxy]-2,3-dihydro-benzofuran-3-yl}-acetic acid], in assay [1], the concentration for a half-maximal effect (EC50) is 3720 nM. The same measure, in the same setting: under `Cc1ncnc(C)c1-c1cccc2c1CC[C@H]2Oc1ccc2c(c1)OC[C@H]2CC(=O)O` [Example 86, {(S)-6-[(R)-4-(4,6-Dimethyl-pyrimidin-5-yl)-indan-1-yloxy]-2,3-dihydro-benzofuran-3-yl}-acetic acid] stands 414 nM; under `CC1(c2cccc3c2CC[C@H]3Oc2ccc3c(c2)OC[C@H]3CC(=O)O)CC1` [Example 87, {(S)-6-[(R)-4-(1-Methyl-cyclopropyl)-indan-1-yloxy]-2,3-dihydro-benzofuran-3-yl}-acetic acid], 64 nM. On the same count and under the same terms, under `O=C(O)C[C@@H]1COc2cc(O[C@@H]3CCc4c(-c5c(Cl)cccc5Cl)cccc43)ccc21` [Example 88, {(S)-6-[(R)-4-(2,6-Dichloro-phenyl)-indan-1-yloxy]-2,3-dihydro-benzofuran-3-yl}-acetic acid] stands 28 nM; under `CC(O)(c1cccc2c1CC[C@H]2Oc1ccc2c(c1)OC[C@H]2CC(=O)O)C(F)(F)F` (stereo partly drawn) [Example 89, {(S)-6-[(R)-4-(2,2,2-Trifluoro-1-hydroxy-1-methyl-ethyl)-indan-1-yloxy]-2,3-dihydro-benzofuran-3-yl}-acetic acid], 428 nM. Still for that read-out and setting: as for `Cc1cccc(Cl)c1-c1cccc2c1CC[C@H]2Oc1ccc2c(c1)OC[C@H]2CC(=O)O` [Example 90, {(S)-6-[(R)-4-(2-Chloro-6-methyl-phenyl)-indan-1-yloxy]-2,3-dihydro-benzofuran-3-yl}-acetic acid], the figure is 36 nM; as for `COc1ccc(C(F)(F)F)c(-c2cccc3c2CC[C@H]3Oc2ccc3c(c2)OC[C@H]3CC(=O)O)n1` [Example 91, {(S)-6-[(R)-4-(6-Methoxy-3-trifluoromethyl-pyridin-2-yl)-indan-1-yloxy]-2,3-dihydro-benzofuran-3-yl}-acetic acid], 69 nM.

Regarding `Cc1cccc2cccc(-c3cccc4c3CC[C@H]4Oc3ccc4c(c3)OC[C@H]4CC(=O)O)c12` [Example 92, {(S)-6-[(R)-4-(8-Methyl-naphthalen-1-yl)-indan-1-yloxy]-2,3-dihydro-benzofuran-3-yl}-acetic acid], the 50% effective concentration (EC50) in assay [1] is 7 nM.

In the case of `Cc1ccnc(C)c1-c1cccc2c1CC[C@H]2Oc1ccc2c(c1)OC[C@H]2CC(=O)O` [Example 93, {(S)-6-[(R)-4-(2,4-Dimethyl-pyridin-3-yl)-indan-1-yloxy]-2,3-dihydro-benzofuran-3-yl}-acetic acid], the EC50 in assay [1] was 61 nM. Still for that read-out and setting: as for `O=C(O)C[C@@H]1COc2cc(O[C@@H]3CCc4c(-c5ccccc5C(F)(F)C(F)(F)F)cccc43)ccc21` [Example 94, {(S)-6-[(R)-4-(2-Pentafluoroethyl-phenyl)-indan-1-yloxy]-2,3-dihydro-benzofuran-3-yl}-acetic acid], the figure is 7 nM. On to `CC(C)(C)c1ccc2c(c1)CC[C@H]2Oc1ccc2c(c1)OC[C@H]2CC(=O)O` [Example 95, {(S)-6-[(R)-5-tert-Butyl-indan-1-yloxy]-2,3-dihydro-benzofuran-3-yl}-acetic acid], for which the EC50 in assay [1] amounted to 100 nM. On to `CC(C)(C)c1cccc2c1CC[C@H]2Oc1ccc2c(c1)OC[C@H]2CC(=O)O` [Example 96, {(S)-6-[(R)-4-tert-Butyl-indan-1-yloxy]-2,3-dihydro-benzofuran-3-yl}-acetic acid], for which the EC50 in assay [1] came out at 36 nM. Still for that read-out and setting: as for `CC(C)(C#N)c1cccc2c1CC[C@H]2Oc1ccc2c(c1)OC[C@H]2CC(=O)O` [Example 97, {(S)-6-[(R)-4-(Cyano-dimethyl-methyl)-indan-1-yloxy]-2,3-dihydro-benzofuran-3-yl}-acetic acid], the figure is 171 nM. For the compound `O=C(O)C[C@@H]1COc2cc(O[C@@H]3CCc4c3ccc(C(F)(F)F)c4Cl)ccc21` [Example 98, {(S)-6-[(R)-4-Chloro-5-trifluoromethyl-indan-1-yloxy]-2,3-dihydro-benzofuran-3-yl}-acetic acid], in assay [1], the concentration for a half-maximal effect (EC50) is 46 nM. Still for that read-out and setting: under `Cc1nccnc1-c1cccc2c1CC[C@H]2Oc1ccc2c(c1)OC[C@H]2CC(=O)O` [Example 99, {(S)-6-[(R)-4-(3-Methyl-pyrazin-2-yl)-indan-1-yloxy]-2,3-dihydro-benzofuran-3-yl}-acetic acid] stands 3270 nM; under `COc1ccc(C)c(-c2cccc3c2CC[C@H]3Oc2ccc3c(c2)OC[C@H]3CC(=O)O)c1C` [Example 100, {(S)-6-[(R)-4-(3-Methoxy-2,6-dimethyl-phenyl)-indan-1-yloxy]-2,3-dihydro-benzofuran-3-yl}-acetic acid], 26 nM. The same measure, in the same setting: under `O=C(O)C[C@@H]1COc2cc(O[C@@H]3CCc4c3cccc4C(F)(F)C(F)(F)F)ccc21` [Example 101, {(S)-6-[(R)-4-Pentafluoroethyl-indan-1-yloxy]-2,3-dihydro-benzofuran-3-yl}-acetic acid] stands 25 nM.
